Assay results published in patent publication US9227971B2, “Pyrazolo[1,5-a]pyrimidine compounds as mTOR inhibitors” (Merck Sharp & Dohme Corp., priority 2010, dated 2016).
Read-outs that look alike come from different tables or passages of the source.

How the values were obtained:
[1] = test system: phosphorylated AKT Ser473 (pAKT S473), mTORC2 activity, PC3 cells; experiment: mTOR target engagement assay, immunofluorescent cell-based, pAKT S473 readout (mTORC2 activity)
Description: (§1) The target engagement of mTOR kinase inhibitors was evaluated using an immunofluorescent cell-based assay. In this assay, inhibition of mTORC1 activity was measured by the reduction in the level of phosphorylated 4E-BP1^[…] (p4E-BP1 Thr37/46), and inhibition of mTORC2 activity was measured by the reduction of phosphorylated AKT^Ser473 (pAKT S473).
PC3 cells (prostate tumor cell-line that contains a mutation in the tumor suppressor PTEN, that promotes the phosphorylation and activation of AKT and 4E-BP1) were used in the immunofluorescence assay. […] PC3 cells were then treated with 40 μl of the serially diluted test compounds (in 5% fetal bovine serum, F12 medium containing 0.25% DMSO) for ninety minutes at 37° C. The test compound solution was removed, and the plates were washed gently two times with 25 μl phosphate buffered saline (PBS). […] 5% Goat serum in PBS/0.3% Triton was used to block non-specific binding (60 minutes).
The primary antibodies targeting pAKT S473 and p4E-BP1 Thr37/46 were diluted into PBS/0.3% Triton and incubated with the cells overnight at 4° C. […] Plates were washed three times with PBS/0.1% Tween 20 before adding the secondary antibody at a 1:200 dilution.
Finally, the plates were washed three times with PBS/0.1% Tween 20 and the fluorescent intensity was read using an Analyst HT from Molecular Devices.

[2] = test system: phosphorylated 4E-BP1 Thr37/46 (p4E-BP1 Thr37/46), mTORC1 activity, PC3 cells; experiment: mTOR target engagement assay, immunofluorescent cell-based, p4E-BP1 Thr37/46 readout (mTORC1 activity); details: read-out: p4E-BP1 Thr37/46 IC50
Description: as §1
PC3 cells (prostate tumor cell-line that contains a mutation in the tumor suppressor PTEN, that promotes the phosphorylation and activation of AKT and 4E-BP1) were used in the immunofluorescence assay. PC3 cells were seeded on 384 well plates (black clear bottom, Matrix #4332) overnight. PC3 cells were then treated with 40 μl of the serially diluted test compounds (in 5% fetal bovine serum, F12 medium containing 0.25% DMSO) for ninety minutes at 37° C. The test compound solution was removed, and the plates were washed gently two times with 25 μl phosphate buffered saline (PBS). The cells were fixed by adding 25 μl of Prefer reagent (from Anatech LTD, Cat#414, a glyoxal fixative for fixing proteins within a cell) for sixty minutes followed by three washes with PBS. 5% Goat serum in PBS/0.3% Triton was used to block non-specific binding (60 minutes).
The primary antibodies targeting pAKT S473 and p4E-BP1 Thr37/46 were diluted into PBS/0.3% Triton and incubated with the cells overnight at 4° C. The antibodies targeting pAKTS473 (Cat#4085, Cell signaling) and p4E-BP1 Thr37/46 (Cat#2855, Cell signaling) were used at a 1:100 dilution. Plates were washed three times with PBS/0.1% Tween 20 before adding the secondary antibody at a 1:200 dilution. (goat anti-rabbit containing a fluorescent label, Alexa Fluor 488, Cat#A11008, Invitrogen) in PBS/0.3% Triton for 60 minutes.
Finally, the plates were washed three times with PBS/0.1% Tween 20 and the fluorescent intensity was read using an Analyst HT from Molecular Devices. The fluorescent intensity values from the serially diluted compound treatment group were analyzed using the Xlfit 4 program ([…]) (Formula 205: Y=Bottom+(Top-Bottom)/(1+(IC50/X)^Hillslope) to generate the IC50 value. Where Top is the maximum signal without Compound (+DMSO only) and Bottom represents maximum inhibition. Y is the fluorescence at some compound concentration. The control used to determine the fluorescent intensities for 100% pAKT S473 or 100% phosphorylated p4E-BP1 Thr37/46 were measured from untreated wells that contained only DMSO, instead of test compound.

[3] = PC3 cells, compound treatment ninety minutes at 37° C.
[4] = Homo sapiens, PC-3, PC3 cells, compound treatment ninety minutes at 37° C.

Which results are given for “1-((1R,3s,5S)-3-(6-acetyl-7-amino-3-(6-(cyclopropylamino)pyridin-3-yl)pyrazolo[1,5-a]pyrimidin-5-yl)-8-azabicyclo[3.2.1]octan-8-yl)-2-hydroxyethanone [Compound 8.50]”?
IC50 ([1]; PC3 cells): 100 to 1000 nM; IC50 ([2]; PC3 cells): 100 to 1000 nM

Which results are given for “1-((1R,3s,5S)-3-(6-acetyl-7-amino-3-(6-(fluoromethyl)pyridin-3-yl)pyrazolo[1,5-a]pyrimidin-5-yl)-8-azabicyclo[3.2.1]octan-8-yl)-2-hydroxyethanone [Compound 1.1.92]”?
IC50 [1, 3]: 1 to 100 nM; IC50 [2, 3]: 1 to 100 nM

What does the source list for “1-((1R,3s,5S)-3-(7-amino-3-(6-(4-methoxy-(D3)-phenyl)pyridin-3-yl)-6-(methylsulfonyl)pyrazolo[1,5-a]pyrimidin-5-yl)-8-azabicyclo[3.2.1]octan-8-yl)-2-hydroxyethanone [Compound 3.67]”?
IC50 ([1]; Table 3-1, PC3 cells): 1 to 100 nM; IC50 ([2]; Table 3-1, PC3 cells): 100 to 1000 nM

What does the source list for `CC(=O)c1c([C@@H]2C[C@H]3CC[C@@H](C2)N3C(=O)C2CCS(=O)(=O)N2)nc2c(-c3ccc(-c4ccccc4)nc3)cnn2c1N` (mixture of isomers) [Compound 1.1.4, (EXO)-3-[6-ACETYL-7-AMINO-3-(6-PHENYL-3-PYRIDINYL)PYRAZOLO[1,5-a]PYRIMIDIN-5-YL]-8-[(1,1-DIOXIDO-3-ISOTHIAZOLIDINYL)CARBONYL]-8-AZABICYCLO[3.2.1]OCTANE (MIX. OF 2 DIASTEREOMERS)]?
IC50 [1, 4]: 100 to 1000 nM; IC50 [2, 4]: 100 to 1000 nM

Which results are given for `CS(=O)(=O)c1c(C2CC3COCC(C2)N3C(=O)c2nc[nH]n2)nc2c(-c3ccc(-c4ccccc4)nc3)cnn2c1N` (single isomer, unassigned) [Compound 8.30, (7-(7-amino-6-(methylsulfonyl)-3-(6-phenylpyridin-3-yl)pyrazolo[1,5-a]pyrimidin-5-yl)-3-oxa-9-azabicyclo[3.3.1]nonan-9-yl)(1H-1,2,4-triazol-3-yl)methanone]?
IC50 ([1]; PC3 cells): 1 to 100 nM; IC50 ([2]; PC3 cells): 1 to 100 nM

What does the source list for `CS(=O)(=O)c1c(C2CC3COCC(C2)N3C(=O)c2nc[nH]n2)nc2c(-c3ccc(-c4ccccc4)nc3)cnn2c1N` (single isomer, unassigned) [Compound 8.31, (7-(7-amino-6-(methylsulfonyl)-3-(6-phenylpyridin-3-yl)pyrazolo[1,5-a]pyrimidin-5-yl)-3-oxa-9-azabicyclo[3.3.1]nonan-9-yl)(1H-1,2,4-triazol-3-yl)methanone]?
IC50 ([1]; PC3 cells): 100 to 1000 nM; IC50 ([2]; PC3 cells): 100 to 1000 nM

Which IC50 ([1]; Homo sapiens, PC-3, PC3 cells) does the source give for `CS(=O)(=O)c1c(C2CC3COCC(C2)N3C(=O)C2(O)CC2)nc2c(-c3ccc(-c4ccccc4)nc3)cnn2c1N` (single isomer, unassigned) [Compound 8.32, (7-(7-amino-6-(methylsulfonyl)-3-(6-phenylpyridin-3-yl)pyrazolo[1,5-a]pyrimidin-5-yl)-3-oxa-9-azabicyclo[3.3.1]nonan-9-yl)(1-hydroxycyclopropyl)methanone] here?
The IC50 was 1 to 100 nM.

What about the IC50 ([2]; Homo sapiens, PC-3, PC3 cells) of the same compound?
Its IC50 is 100 to 1000 nM.

With `CC(=O)c1c([C@@H]2C[C@H]3CC[C@@H](C2)N3C(=O)C(C)(CO)CO)nc2c(-c3ccc(-c4ccccc4)nc3)cnn2c1N` [Compound 1.1.1, 1-((1R,3s,5S)-3-(6-acetyl-7-amino-3-(6-phenylpyridin-3-yl)pyrazolo[1,5-a]pyrimidin-5-yl)-8-azabicyclo[3.2.1]octan-8-yl)-3-hydroxy-2-(hydroxymethyl)-2-methylpropan-1-one] as the compound, how does the IC50 [1, 4] read?
The IC50 was 100 to 1000 nM.

And the IC50 [2, 4]?
The IC50 was 100 to 1000 nM.

Which results are given for `CC(=O)c1c([C@@H]2C[C@H]3CC[C@@H](C2)N3C(=O)[C@@H](C)O)nc2c(-c3ccc(-c4ccccc4)nc3)cnn2c1N` [Compound 1.1.2]?
IC50 [1, 4]: 1 to 100 nM; IC50 [2, 4]: 100 to 1000 nM

What does the source list for `CC(=O)c1c([C@@H]2C[C@H]3CC[C@@H](C2)N3C(=O)CO)nc2c(-c3ccc(-c4ccccc4)nc3)cnn2c1N` [Compound 1.1.5, 1-((1R,3s,5S)-3-(6-acetyl-7-amino-3-(6-phenylpyridin-3-yl)pyrazolo[1,5-a]pyrimidin-5-yl)-8-azabicyclo[3.2.1]octan-8-yl)-2-hydroxyethanone]?
IC50 [1, 4]: 1 to 100 nM; IC50 [2, 4]: 1 to 100 nM

Which IC50 [1, 4] does the source give for `CC(=O)c1c(C2CC3CCC(C2)N3C(=O)c2nnc[nH]2)nc2c(-c3ccc(-c4ccccc4)nc3)cnn2c1N` [Compound 1.1.7, 1-(5-((1R,3s,5S)-8-(1H-1,2,4-triazole-3-carbonyl)-8-azabicyclo[3.2.1]octan-3-yl)-7-amino-3-(6-phenylpyridin-3-yl)pyrazolo[1,5-a]pyrimidin-6-yl)ethanone] here?
Its IC50 is 1 to 100 nM.

What about the IC50 [2, 4] of the same compound?
The IC50 was 1 to 100 nM.

Which results are given for `CC(=O)c1c([C@@H]2C[C@H]3CC[C@@H](C2)N3C(=O)[C@H](C)O)nc2c(-c3ccc(-c4ccccc4)nc3)cnn2c1N` [Compound 1.1.8, (S)-1-((1R,3R,5S)-3-(6-acetyl-7-amino-3-(6-phenylpyridin-3-yl)pyrazolo[1,5-a]pyrimidin-5-yl)-8-azabicyclo[3.2.1]octan-8-yl)-2-hydroxypropan-1-one]?
IC50 [1, 4]: 1 to 100 nM; IC50 [2, 4]: 100 to 1000 nM

How did the IC50 [1, 4] turn out when `CC(=O)c1c([C@H]2C[C@H]3CC[C@@H](C2)N3C(=O)CO)nc2c(-c3ccc(-c4ccccc4)nc3)cnn2c1N` [Compound 1.1.9, 1-((1R,3r,5S)-3-(6-acetyl-7-amino-3-(6-phenylpyridin-3-yl)pyrazolo[1,5-a]pyrimidin-5-yl)-8-azabicyclo[3.2.1]octan-8-yl)-2-hydroxyethanone] was run?
Its IC50 is 100 to 1000 nM.

And the IC50 [2, 4]?
Its IC50 is 100 to 1000 nM.

`CC(=O)c1c([C@@H]2C[C@H]3CC[C@@H](C2)N3C(=O)Cc2nnn[nH]2)nc2c(-c3ccc(-c4ccccc4)nc3)cnn2c1N` [Compound 1.1.20, 1-((1R,3s,5S)-3-(6-acetyl-7-amino-3-(6-phenylpyridin-3-yl)pyrazolo[1,5-a]pyrimidin-5-yl)-8-azabicyclo[3.2.1]octan-8-yl)-2-(1H-tetrazol-5-yl)ethanone] was tested. Which IC50 [1, 4] did it give?
The IC50 was 100 to 1000 nM.

What about the IC50 [2, 4] of the same compound?
Its IC50 is 1000 to 10000 nM.

What does the source list for `CC(=O)c1c(C2CC3CCC(C2)N3C(=O)c2c[nH]nn2)nc2c(-c3ccc(-c4ccccc4)nc3)cnn2c1N` [Compound 1.1.21, 1-(5-((1R,3s,5S)-8-(1H-1,2,3-triazole-5-carbonyl)-8-azabicyclo[3.2.1]octan-3-yl)-7-amino-3-(6-phenylpyridin-3-yl)pyrazolo[1,5-a]pyrimidin-6-yl)ethanone]?
IC50 [1, 4]: 1 to 100 nM; IC50 [2, 4]: 1 to 100 nM

For `CC(=O)c1c(C2CC3CCC(C2)N3C(=O)c2nnc(C)[nH]2)nc2c(-c3ccc(-c4ccccc4)nc3)cnn2c1N` [Compound 1.1.22, 1-(7-amino-5-((1R,3s,5S)-8-(3-methyl-1H-1,2,4-triazole-5-carbonyl)-8-azabicyclo[3.2.1]octan-3-yl)-3-(6-phenylpyridin-3-yl)pyrazolo[1,5-a]pyrimidin-6-yl)ethanone], which IC50 [1, 4] is on record?
The IC50 was 1 to 100 nM.

What about the IC50 [2, 4] of the same compound?
Its IC50 is 1 to 100 nM.

For `COc1cc(-c2ccc(-c3cnn4c(N)c(C5CC5)c([C@@H]5C[C@H]6CC[C@@H](C5)N6C(=O)c5nnc[nH]5)nc34)cn2)ccc1F` [Compound 4.11, ((1R,3a,5S)-3-(7-amino-6-cyclopropyl-3-(6-(4-fluoro-3-methoxyphenyl)pyridin-3-yl)pyrazolo[1,5-a]pyrimidin-5-yl)-8-azabicyclo[3.2.1]octan-8-yl)(4H-1,2,4-triazol-3-yl)methanone], which IC50 [2, 4] is on record?
The IC50 was > 10000 nM.

Which IC50 ([2]; Homo sapiens, PC-3, Table 7-8, PC3 cells) does the source give for `Nc1cc([C@@H]2C[C@H]3CC[C@@H](C2)N3C(=O)c2nnc[nH]2)nc2c(-c3ccc(C4(O)CCC4)nc3)cnn12` [Compound 7.44, ((1R,3s,5S)-3-(7-amino-3-(6-(1-hydroxycyclobutyl)pyridin-3-yl)pyrazolo[1,5-a]pyrimidin-5-yl)-8-azabicyclo[3.2.1]octan-8-yl)(4H-1,2,4-triazol-3-yl)methanone] here?
Its IC50 is 1000 to 10000 nM.
